Test results: patent publication US8815919B2, “Oxadiazole derivatives” (Merck Serono SA, priority 2009, dated 2014)
Structures can show the parent of a compound that is named as a salt. Where two headings read alike, the source gives them in different places.

Assays:
[1] = target: T1, S1P1 (Homo sapiens, UniProt P21453); assay: Receptor binding assay, [33P]sphingosine 1-phosphate competition, S1P1 membranes, WGA SPA beads
In short: (§1)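 Competition of [33P]S1P ([…]) on CHO cell membranes with WGA SPA beads in 50 mM HEPES pH 7.5, 5 mM MgCl2, 100 mM NaCl, 0.4% fatty acid-free BSA; 60 min at RT. Triplicates normalised to total binding and nonspecific binding (1000-fold excess unlabeled S1P).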
Target sequence in this assay (P21453 whole entry, species assumed): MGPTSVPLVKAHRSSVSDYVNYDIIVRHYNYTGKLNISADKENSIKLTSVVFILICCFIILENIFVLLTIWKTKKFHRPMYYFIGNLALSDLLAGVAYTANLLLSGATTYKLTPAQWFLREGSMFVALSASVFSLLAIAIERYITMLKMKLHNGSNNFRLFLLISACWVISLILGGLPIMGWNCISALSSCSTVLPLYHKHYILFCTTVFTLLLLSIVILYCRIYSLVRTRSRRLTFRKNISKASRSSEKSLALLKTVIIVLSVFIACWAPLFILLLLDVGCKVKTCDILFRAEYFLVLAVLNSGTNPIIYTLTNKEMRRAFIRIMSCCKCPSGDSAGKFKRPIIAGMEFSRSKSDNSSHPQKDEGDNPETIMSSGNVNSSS

[2] = target: S1P3 (Homo sapiens, UniProt Q99500); assay: Receptor binding assay, [33P]sphingosine 1-phosphate competition, S1P3 membranes, WGA SPA beads; settings: 384 well-plate; read-out: S1P3 binding Ki (M) (384 well-plate)
Sequence of S1P3 (Q99500 whole entry, species assumed): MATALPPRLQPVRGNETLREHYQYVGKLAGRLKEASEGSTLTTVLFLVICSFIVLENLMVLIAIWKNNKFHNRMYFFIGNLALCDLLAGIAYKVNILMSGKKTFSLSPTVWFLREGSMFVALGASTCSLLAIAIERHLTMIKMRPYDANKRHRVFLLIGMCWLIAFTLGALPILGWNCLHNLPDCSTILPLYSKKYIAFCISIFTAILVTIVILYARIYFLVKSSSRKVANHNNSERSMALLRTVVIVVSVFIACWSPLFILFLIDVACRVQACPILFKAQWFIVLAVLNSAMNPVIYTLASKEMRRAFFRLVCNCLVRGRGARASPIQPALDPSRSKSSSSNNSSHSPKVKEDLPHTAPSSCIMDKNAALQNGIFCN
In short: as §1

[3] = target: T1, S1P1; assay: S1P1 internalization assay in S1P1-U2OS cells (S1P1-EGFP), cell imaging; assay type: cell-based; design: host or cells: U2OS (human bone osteosarcoma epithelial cells), CMV promoter, geneticin selection; settings: 1 hour incubation
In short: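 U2OS cells stably expressing human S1P1-EGFP, plated overnight in 1% FCS medium, then serum-starved 2 h in 0.1% fatty-acid-free BSA before 1 h compound exposure at 37 °C. After PFA fixation and Hoechst staining, internalization imaged as EGFP spot count per nucleus.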
Target sequence in this assay (P21453 whole entry): as the sequence (P21453 whole entry, species assumed) above

[4] = 384 well-plate, read-out: S1P1 binding Ki (M) (384 well-plate)

Row | Compound | Ki [1, 4] [M] | Ki [2] [M] | EC50 [3] [nM] | Ki ([1]; 96 well-plate, read-out: S1P1 binding Ki (M) (96 well-plate))
1 | COCc1cc(-c2nc(-c3cccc(CN(CCC(=O)O)C(C)C)c3)no2)ccc1-c1ccccc1C [Example 108, N-isopropyl-N-(3-{5-[2-(methoxymethyl)-2′-methylbiphenyl-4-yl]-1,2,4-oxadiazol-3-yl}benzyl)-beta-alanine, hydrochloride salt] | 5.06e-10 | 1.1e-06 | 14 | 
2 | COCc1cc(-c2nc(-c3ccc(CN(C)CC(=O)O)cc3)no2)ccc1-c1ccccc1Cl [Example 118, N-(4-{5-[2′-chloro-2-(methoxymethyl)biphenyl-4-yl]-1,2,4-oxadiazol-3-yl}benzyl)-N-methylglycine, hydrochloride salt] | 1.1e-09 | 5.67e-07 | 9.94 | 
3 | COCc1cc(-c2nc(-c3ccc(CN(C)CC(=O)O)c(F)c3)no2)ccc1-c1ccccc1Cl [Example 119, N-(4-{5-[2′-chloro-2-(methoxymethyl)biphenyl-4-yl]-1,2,4-oxadiazol-3-yl}-2-fluorobenzyl)-N-methylglycine, hydrochloride salt] | 9.55e-10 | 3.83e-07 | 11.5 | 
4 | COCc1cc(-c2nc(-c3ccc(CN(C)CC(=O)O)c(F)c3)no2)ccc1-c1cccc(F)c1Cl [Example 121, N-(4-{5-[2′-chloro-3′-fluoro-2-(methoxymethyl)biphenyl-4-yl]-1,2,4-oxadiazol-3-yl}-2-fluorobenzyl)-N-methylglycine, hydrochloride salt] | 1.54e-09 | 5.26e-07 | 6.56 | 
5 | COCc1cc(-c2nc(-c3ccc(CN(C)CC(=O)O)cc3)no2)ccc1-c1cccc(F)c1Cl [Example 122, N-(4-{5-[2′-chloro-3′-fluoro-2-(methoxymethyl)biphenyl-4-yl]-1,2,4-oxadiazol-3-yl}benzyl)-N-methylglycine, hydrochloride salt] | 1.31e-09 | 2.5e-06 | 5.1 | 
6 | CCc1cc(-c2noc(-c3ccc(-c4ccccc4C)c(COC)c3)n2)ccc1CN(C)CC(=O)O [Example 124, 2-((2-ethyl-4-(5-(2-(methoxymethyl)-2′-methylbiphenyl-4-yl)-1,2,4-oxadiazol-3-yl)benzyl)(methyl)amino)acetic acid] | 1.98e-09 | 4.1e-06 | 23.2 | 
7 | COCc1cc(-c2nc(-c3ccc(CN(C)CC(=O)O)c(C)c3)no2)ccc1-c1ccccc1C [Example 125, 2-((4-(5-(2-(methoxymethyl)-2′-methylbiphenyl-4-yl)-1,2,4-oxadiazol-3-yl)-2-methylbenzyl)(methyl)amino)acetic acid] | 2.31e-09 | 1.92e-06 | 7.65 | 
8 | COCc1cc(-c2nc(-c3cc(CN(C)CC(=O)O)cc(F)c3F)no2)ccc1-c1ccccc1C [Example 126, N-(3,4-difluoro-5-{5-[2-(methoxymethyl)-2′-methylbiphenyl-4-yl]-1,2,4-oxadiazol-3-yl}benzyl)-N-methylglycine, hydrochloride salt] | 2.88e-09 | 6.55e-07 | 47 | 
9 | COCc1cc(-c2nc(-c3ccc(CN(C)CC(=O)O)cc3)no2)ccc1-c1cc(F)ccc1C [Example 127, N-(4-{5-[5′-fluoro-2-(methoxymethyl)-2′-methylbiphenyl-4-yl]-1,2,4-oxadiazol-3-yl}benzyl)-N-methylglycine, hydrochloride salt] | 1.12e-09 | 7.6e-07 | 8.68 | 
10 | COCc1cc(-c2nc(-c3ccc(CN(C)CC(=O)O)c(Cl)c3)no2)ccc1-c1ccccc1C [Example 128, 2-((4-(5-(2-(methoxymethyl)-2′-methylbiphenyl-4-yl)-1,2,4-oxadiazol-3-yl)-2-chlorobenzyl)(methyl)amino)acetic acid] | 1.45e-09 | 5.66e-07 | 13.3 | 
11 | Cc1ccccc1-c1ccc(-c2nc(-c3ccc(CN(C)CC(=O)O)cc3)no2)cc1C [Example 130, N-{4-[5-(2,2′-dimethylbiphenyl-4-yl)-1,2,4-oxadiazol-3-yl]benzyl}-N-methylglycine, hydrochloride salt] | 2.53e-09 | 5.38e-06 | 23.3 | 8.34e-10
